Laboratory results reported in patent publication US20070167526A1, “Topical mecamylamine formulations for ocular administration and uses thereof” (priority 2005, published 2007).
Where two headings read alike, the source gives them in different places.

Experiments:
[1] = system: VEGF-induced endothelial tube formation; test: VEGF-induced endothelial tube formation in vitro; assay type: cell-based
[2] = Single- and multiple-dose rabbit ocular pharmacokinetics (Example 7); assay type: in vivo, Dutch-belted rabbit
Protocol: Dutch-belted male rabbits (Covance, Denver, Pa.) aged 2.5 to 4.5 months and with weights of 1.5 to 2.5 kg were given a 3% solution of mecamylamine hydrochloride (polymer-free solution) by ocular installation either as a single dose or 6 doses (50 microliters per dose), approximately 1.5 hours apart. Serial blood samples (approximately 0.5 mL each) were collected by direct venipuncture from a marginal ear vein into a blood collection tube containing EDTA as anticoagulant from various animal groups at 0.5 hours post dose, 2 hours post dose. A terminal blood sample was obtained from all animals just prior to euthanasia. Animals were euthanized 1, 3 or 6 hours after administration of the drug solution. Ocular tissues (listed in Table 7) were obtained after euthanasia.
The concentration of mecamylamine in plasma and ocular tissues was measured using an LC MS/MS method as described in Example 6.

[3] = Distribution of mecamylamine into ocular tissue of rabbits following intravenous administration (Example 9); assay type: in vivo, New Zealand white rabbit; settings: rabbit; for concentration at 1 h / concentration at 2 h / concentration at 4 h / concentration at 6 h / concentration at 0 h / concentration at 0.5 h: male, iv; for concentration at 1 h / concentration at 2 h / concentration at 4 h / concentration at 6 h / concentration at 0 h / concentration at 0.5 h / Concentration of mecamylamine in the retina/choroid, Mean: 15 mg/kg; for Concentration of mecamylamine in the retina/choroid, Mean: hour 6, listed as MEC
Protocol: Mecamylamine was administered intravenously to male New Zealand white rabbits (approximately 2.5-3 kg (Kralek Frams, Turlock, Calif.)) at a dose of 15 mg/kg (dissolved in sterile 0.9% NaCl for injection) over either over 60 minutes or 6 hours. Drug concentrations were measured as described previously at different time points in the plasma, the vitreous and at 6 hours in the retina-choroid tissue. For both groups, the vitreous(>0.1 mL) was withdrawn at 8 time points, with each animal being sampled no more than twice in total: pre-dose, 5 minutes, 15 minutes, 30 minutes, 1, 2, 4, and 6 hours. At all time points, only two vitreous samples were collected in order to minimize pain and damage to rabbit eyes, in compliance with IACUC guidelines. Plasma samples were also collected at the same 8 time points: pre-dose, 5 minutes, 15 minutes, 30 minutes, 1, 2, 4, and 6 hours, with duplicate samples collected at each time point. At 6 hours, the animals were sacrificed and the vitreous and retina-choroid tissue were collected from all animals. Clinical observations were recorded periodically throughout the study. Biological samples for this study were analyzed using an LC/MS/MS method (see Example 6) with a lower limit of quantitation of 0.5 ng/mL.

[4] = Toxicokinetics in the 14-day dog study (Example 13); assay type: in vivo; settings: for Cmax: both sexes, beagle, dog, in vivo, topical or ocular
Protocol: An ophthalmic saline solution formulation containing 3% mecamylamine hydrochloride (HCl) was evaluated for toxicological effects and drug pharmacokinetics in healthy beagle dogs. The drug solution or a matching vehicle control was administered 2, 4 and […] for 14 or 15 consecutive days to both eyes of Beagle dogs.
Animals were dosed 2, 4 or 6 times a day for 14 consecutive days for males or 15 consecutive days for females. The dose (50 microliters) was administered to the globe of the eye on each dosing occasion. Mortality and clinical observations were evaluated twice daily. Ocular observations were evaluated according to the Draize scoring system twice daily (Draize et al., (1944) J. Pharm. Exp. Ther. 82: 377-390, incorporated by reference herein). All eyes from all animals had ophthalmology examinations using an indirect ophthalmoscope and slit lamp and were evaluated according to McDonald and Shadduck (McDonald & Shadduck (1977) Advances in Modern Toxicology 4: 162 (New York, Wiley), hereby incorporated by reference herein) prior to treatment initiation and 1-2 hours following the final dosing of Groups 1 and 4 on Days 7 and 14. Approximate pupil size was determined for each animal prior to study initiation, at least 30 minutes following the final daily dose on Days 1 and 8 and prior to terminal sacrifice on Days 15/16. Electroretinograms (ERG) were obtained from all animals prior to treatment initiation and on Day 14. Blood samples for evaluation of hematology, coagulation and clinical chemistry parameters were collected prior to treatment initiation and prior to terminal sacrifice on Days 15/16. Selected tissues were harvested at necropsy, selected organs weighed, and selected tissues from all animals were evaluated microscopically.

[5] = system: eyes of New Zealand White rabbits; test: Pupil diameter, pupillary response and mortality observations after topical ocular instillation in rabbits (Example 10); settings: rabbit; 2 drops of 50 μL topically
Protocol: The objective of this study was to evaluate the ocular pharmacokinetics of a 2% Mecamylamine in a GELRITE solution up to 6 hours following topical instillation into the eyes of New Zealand White rabbits. Nine New Zealand White female rabbits of minimum age of 9 weeks and weight 2-3 kg were obtained from The Rabbit Source (Ramona, Calif.) were used in the study.
On day 1, 2 drops of 50 μL of mecamylamine or vehicle were administered topically into the appropriate eye(s) of each animal as described in Table 13. The time of each dose administration was recorded.

[6] = cited from earlier work
[7] = rabbit, 3% solution, 1 hour to 6 hours after dosing

CNC1(C)C2CCC(C2)C1(C)C (centres unmarked) [mecamylamine, N-2,3,3-tetramethylbicyclo(2.2.1)heptan-2-amine]
VEGF-induced endothelial tube formation [1]: inhibited
Kp ([2]; male, Dutch-belted, retina/choroid and plasma, topical, 50 µL of 3% solution per dose, rabbit, 3% solution, read-out: ratio of mecamylamine concentration in the retina/choroid to the plasma): 37 to 147
Plasma levels ([2]; rabbit, 3% solution): ≤ 50 ng/mL
Mean peak levels in aqueous humor [2, 7]: 310 to 920 ng/mL
Mean peak levels in the retina/choroid [2, 7]: 171 to 510 ng/g
mecamylamine concentration in the retina/choroid after 6 hourly doses relative to single dose ([2]; rabbit, 1 hour after 6 hourly doses): five-fold
mean maximum concentration of mecamylamine detected in plasma ([2]; rabbits, topical ocular, single dose and multi-dose studies): less than 70 ng/mL
concentration at 1 h ([3]; New Zealand White, plasma, 15 mg/kg i.v. 1 hr infusion, hour 1, read-out: Concentration of mecamylamine in the plasma, Mean): 1820 ng/mL
concentration at 2 h ([3]; New Zealand White, plasma, 15 mg/kg i.v. 1 hr infusion, hour 2, read-out: Concentration of mecamylamine in the plasma, Mean): 455 ng/mL
concentration at 4 h ([3]; New Zealand White, plasma, 15 mg/kg i.v. 1 hr infusion, hour 4, read-out: Concentration of mecamylamine in the plasma, Mean): 227 ng/mL
concentration at 6 h ([3]; New Zealand White, plasma, 15 mg/kg i.v. 1 hr infusion, hour 6, read-out: Concentration of mecamylamine in the plasma, Mean): 102 ng/mL
concentration at 1 h ([3]; New Zealand White, plasma, 15 mg/kg i.v. 6 hr infusion, hour 1, read-out: Concentration of mecamylamine in the plasma, Mean): 470 ng/mL
concentration at 2 h ([3]; New Zealand White, plasma, 15 mg/kg i.v. 6 hr infusion, hour 2, read-out: Concentration of mecamylamine in the plasma, Mean): 572 ng/mL
concentration at 4 h ([3]; New Zealand White, plasma, 15 mg/kg i.v. 6 hr infusion, hour 4, read-out: Concentration of mecamylamine in the plasma, Mean): 717 ng/mL
concentration at 6 h ([3]; New Zealand White, plasma, 15 mg/kg i.v. 6 hr infusion, hour 6, read-out: Concentration of mecamylamine in the plasma, Mean): 313 ng/mL
concentration at 6 h ([3]; New Zealand White, retina/choroid, 15 mg/kg i.v. 1 hr infusion, hour 6, read-out: Concentration of mecamylamine in the retina/choroid, Mean): 261 ng/mL
concentration at 6 h ([3]; New Zealand White, retina/choroid, 15 mg/kg i.v. 6 hr infusion, hour 6, read-out: Concentration of mecamylamine in the retina/choroid, Mean): 1530 ng/mL
concentration at 0 h ([3]; New Zealand white, plasma, 15 mg/kg i.v. 1 hr infusion, hour 0, read-out: Concentration of mecamylamine in the plasma, Mean): 48.7 ng/mL
concentration at 0.5 h ([3]; New Zealand white, plasma, 15 mg/kg i.v. 1 hr infusion, hour 0.5, read-out: Concentration of mecamylamine in the plasma, Mean): 5330 ng/mL
concentration at 0 h ([3]; New Zealand white, plasma, 15 mg/kg i.v. 6 hr infusion, hour 0, read-out: Concentration of mecamylamine in the plasma, Mean): 0 ng/mL
concentration at 0.5 h ([3]; New Zealand white, plasma, 15 mg/kg i.v. 6 hr infusion, hour 0.5, read-out: Concentration of mecamylamine in the plasma, Mean): 350 ng/mL
concentration at 0 h ([3]; New Zealand white, vitreous humor, 15 mg/kg i.v. 1 hr infusion, hour 0, read-out: Concentration of mecamylamine in the vitreous humor, Mean): 43 ng/mL
concentration at 0.5 h ([3]; New Zealand white, vitreous humor, 15 mg/kg i.v. 1 hr infusion, hour 0.5, read-out: Concentration of mecamylamine in the vitreous humor, Mean): 717 ng/mL
concentration at 1 h ([3]; New Zealand white, vitreous humor, 15 mg/kg i.v. 1 hr infusion, hour 1, read-out: Concentration of mecamylamine in the vitreous humor, Mean): 1110 ng/mL
concentration at 2 h ([3]; New Zealand white, vitreous humor, 15 mg/kg i.v. 1 hr infusion, hour 2, read-out: Concentration of mecamylamine in the vitreous humor, Mean): 900 ng/mL
concentration at 4 h ([3]; New Zealand white, vitreous humor, 15 mg/kg i.v. 1 hr infusion, hour 4, read-out: Concentration of mecamylamine in the vitreous humor, Mean): 430 ng/mL
concentration at 6 h ([3]; New Zealand white, vitreous humor, 15 mg/kg i.v. 1 hr infusion, hour 6, read-out: Concentration of mecamylamine in the vitreous humor, Mean): 174 ng/mL
concentration at 0 h ([3]; New Zealand white, vitreous humor, 15 mg/kg i.v. 6 hr infusion, hour 0, read-out: Concentration of mecamylamine in the vitreous humor, Mean): 5.6 ng/mL
concentration at 0.5 h ([3]; New Zealand white, vitreous humor, 15 mg/kg i.v. 6 hr infusion, hour 0.5, read-out: Concentration of mecamylamine in the vitreous humor, Mean): 59.9 ng/mL
concentration at 1 h ([3]; New Zealand white, vitreous humor, 15 mg/kg i.v. 6 hr infusion, hour 1, read-out: Concentration of mecamylamine in the vitreous humor, Mean): 138 ng/mL
concentration at 2 h ([3]; New Zealand white, vitreous humor, 15 mg/kg i.v. 6 hr infusion, hour 2, read-out: Concentration of mecamylamine in the vitreous humor, Mean): 223 ng/mL
concentration at 4 h ([3]; New Zealand white, vitreous humor, 15 mg/kg i.v. 6 hr infusion, hour 4, read-out: Concentration of mecamylamine in the vitreous humor, Mean): 408 ng/mL
concentration at 6 h ([3]; New Zealand white, vitreous humor, 15 mg/kg i.v. 6 hr infusion, hour 6, read-out: Concentration of mecamylamine in the vitreous humor, Mean): 458 ng/mL
Concentration of mecamylamine in the retina/choroid, Mean ([3]; 15 mg/kg i.v. 1 hr infusion): 260.8 ng/mL
Concentration of mecamylamine in the retina/choroid, Mean ([3]; 15 mg/kg i.v. 6 hr infusion): 1534.3 ng/mL
peak mean plasma concentration ([3]; 15 mg/kg i.v. over longer period (6 hours)): 717 ng/mL
time of peak plasma levels ([3]; 15 mg/kg i.v. over shorter period): ≤ 0.5 h
peak mean plasma concentration ([3]; 15 mg/kg i.v. over shorter period (60 minutes)): 5,331 ng/mL
highest mean level in the vitreous ([3]; longer infusion period, seen at 6 hours): 458 ng/mL
highest mean level in the vitreous ([3]; shorter infusion period, seen at 1 hour): 1110 ng/mL
accumulation ratios ([4]; Beagle dog, Day 13 versus Day 1, any group): ≤ 1.14
Cmax ([4]; 3 mg/eye/day, Group 2 (2 doses/eye/day, 3 mg/eye/day), read-out: Cmax, mean): 49 ng/mL
Cmax ([4]; 3 mg/eye/day, Group 2, read-out: Cmax, highest overall value): 185 ng/mL
Cmax ([4]; 6 mg/eye/day, Group 3 (4 doses/eye/day, 6 mg/eye/day), read-out: Cmax, mean): 44 ng/mL
Cmax ([4]; 9 mg/eye/day, Group 4 (6 doses/eye/day, 9 mg/eye/day), read-out: Cmax, mean): 64 ng/mL
mortality [5]: no mortality
pka [6]: ~11.2
